Source: patent US20120316138A1, “PPAR-SPARING THIAZOLIDINEDIONES AND COMBINATIONS FOR THE TREATMENT OF OBESITY AND OTHER METABOLIC DISEASES” (METABOLIC SOLUTIONS DEVELOPMENT COMPANY, LLC, priority 2009, published 2012)

Key:
PGC-1α = assay: Expression of PGC-1α mRNA in precursor BAT cells with norepinephrine (quantitative PCR); format: cell-based, mice; details: for PGC-1α message (mRNA): 3 μM compound for seven days, then 1 μM norepinephrine for 2 hours
Procedure: Another example of the ability of augmented signaling between cyclic nucleotides and compounds of Formula I is shown by the effect on expression of PGC-1α, a known regulator of mitochondrial biogenesis. Increased numbers of mitochondria are predictive of utility for the reduction of body weight.
Precursor BAT cells were isolated as described above and treated with or without 3 μM compounds: 1.] Compound A: 5-(4-(2-(5-ethylpyridin-2-yl)-2-oxoethoxy)benzyl)-1,3-thiazolidine-2,4-dione; 2.] Compound F: 5-((4-(2R)-2-(5-ethylpyridin-2-yl)-2-hydroxyethoxyl)benzyl)-1,3-thiazolidine-2,4-dione; or 3.] Compound G: 5-(4-(2-(3-methoxyphenyl)-2-oxoethoxy)benzyl)-1,3-thiazolidine-2,4-dione for seven days followed by treatment with 1 μM norepinephrine for 2 hours. Total RNA was isolated from the cells and the RNA message (mRNA) for PGC-1α was measured by quantitative polymerase chain reactions.

[1] = Bioavailability of sodium salt of Compound A, oral capsule versus iv injection; format: in vivo; details: male cynomolgus monkeys, oral gavage, 90 mg free base equivalents in capsules, absolute availability versus iv
Procedure: The monkeys fasted overnight and were dosed by oral gavage washed down with 10 ml tap water. Blood samples were taken at 0.25, 0.5, 1, 2, 3, 4, 6, 9, 12, 24, and 48 hours after a single dosage was administered and assayed for drug related materials with a LCMS assay using an internal standard. 90 mg of drug was put in 00 gelatin capsules containing 90 mg of free base equivalents. This was compared to an iv injection of 2 ml/kg and 45 mg of free base solution in 50% hydroxypropyl b-cyclodextran. The absolute availability versus an iv injection was determined for both parent compound and major metabolite.

diabetic KKAy mouse = assay: Blood glucose lowering in the diabetic KKAy mouse; format: in vivo; details: diabetic KKAy mice, gavage once daily, glucose measured after 4 daily doses
Procedure: In these experiments, free base or sodium salt was given to diabetic KKAy mice (N=6) and blood glucose was measured after 4 days of daily treatment at the doses indicated. KKAy mice, 8-12 weeks of age, were given the doses of the compounds according to the dosages on the X axis of FIG. 10. The compounds were given by gavage once daily at […]. On the fifth day (after 4 daily doses at the levels show) a blood sample was taken to measure plasma glucose.

[2] = AUC of compound related materials after oral dosing of Compound G forms; format: in vivo; details: cynomolgus monkeys, 250 mg free acid equivalents, formulated tablets
Procedure: Referring to FIG. 9, the area under the curve (AUC) of compound related materials was compared following dosing of 250 mg of Compound G as powder in capsules of free acid (PIC), formulated tablets of micronized free acid, or formulated tablets of the Na or K salt of […] given at the same free acid equivalents. (N=4 cynomolgus monkeys). The formulated, compressed tablet also contained in each case approximately 40.5% lactose, 16.8% microcrystalline cellulose, 1.9% Croscarmellose sodium, 0.5% colloidal silicon dioxide, and 0.9% magnesium stearate.

[3] = tested on: brown adipose tissue precursor cells (UCP1); assay: BAT differentiation: UCP1 protein by Western blot in BAT precursor cells; format: cell-based, mice; details: 7 days
Procedure: Precursors of BAT are isolated from the interscapular adipose pad of either normal or diabetic mice and cultured in vitro as described below based on the modifications recited in Petrovic N, Shabalina I G, Timmons J A, Cannon B, Nedergaard J. Am. J. Physiol. Endocrinol. Metab. 295:E287-E296, 2008, hereby incorporated by reference.
The brown fat pads are pooled and minced, digested for 45 minutes in isolation buffer containing 0.15% (wt/vol) collagenase. The cell suspension is filtered through a 100 un nylon filter and centrifuged at 200×g for 5 minutes. The pellet containing the preadipocytes is resuspended in 1.2 ml/animal of DMEM containing 10% FBS, 10 mM HEPES, 25 μg/ml sodium ascorbate, 100 U/ml penicillin, and 100 μg/ml streptomycin. The resuspended preadipocytes are distributed into 6 well plates and grown at 37° C. in an atmosphere of 10% CO2 in air with 80% humidity. The medium is changed on the first day and then every second day until confluent.
Cells are then treated with the compounds, compound salts, or co-crystals thereof being assayed for BAT differentiation. This treatment can occur simultaneously with, after, or before strategies to increase intracellular cyclic nucleotides. The development of the BAT phenotype is assessed by direct measure of the uncoupling protein 1 (UCP1), which is emblematic of brown adipose cells.
Following treatment of the cells, the growth medium is aspirated, rinsed with PBS, and lysed with KHM buffer containing 1% Igepal CA-630, and a protease inhibitor cocktail. The lysate is centrifuged at 8,000×g for 5 minutes (4° C.), the supernatant containing the cell lysate is collected and total protein analyzed using the BCA method. 20 μg/lane of cell lysate is run on 10-20% Tris glycine gels under reducing conditions and the proteins transferred to PVDF membranes. Western blotting is conducted using UCP1 polyclonal 1° antibody, an HRP conjugated 2° antibody, and imaged using enhanced chemiluminescence reagents and imaging film. Densitometry is conducted on the scanned films using ImageJ software and analyzed using GraphPad Prism software.

NC[C@H](O)c1ccc(O)c(O)c1 [norepinephrine, reference compound]
PGC-1α mRNA (PGC-1α; norepinephrine alone, 1 μM for 2 hours, absence of compound (control)): did not produce an increase

CCc1ccc([C@@H](O)COc2ccc(CC3SC(=O)NC3=O)cc2)nc1 (stereo partly drawn) [Compound F, 5-((4-(2R)-2-(5-ethylpyridin-2-yl)-2-hydroxyethoxyl)benzyl)-1,3-thiazolidine-2,4-dione]
PGC-1α message (mRNA) (PGC-1α): an increase in PGC-1α message was observed

CCc1ccc(C(=O)COc2ccc(CC3SC(=O)[N-]C3=O)cc2)nc1.[Na+] (centres unmarked) [sodium salt of Compound A, Sodium 5-{4-[2-(5-ethylpyridin-2-yl)-2-oxoethoxy]benztl}-2,4-dioxo-1,3-thiazolidin-3-ide]
bioavailability of major metabolite versus free base counterpart [1]: significantly higher bioavailability | bioavailability of parent compound versus free base counterpart [1]: significantly higher bioavailability | lowering blood glucose (diabetic KKAy mouse): excellent dose response

COc1cccc(C(=O)COc2ccc(CC3SC(=O)[N-]C3=O)cc2)c1.[Na+] (centres unmarked) [sodium salt of Compound G, Sodium 5-{4-[2-(3-methoxyphenyl)-2-oxoethoxy]benztl}-2,4-dioxo-1,3-thiazolidin-3-ide]
bioavailability (AUC of compound related materials) versus free acid counterparts [2]: significantly higher bioavailability

COc1cccc([C@@H](F)COc2ccc(CC3SC(=O)NC3=O)cc2)c1 (stereo partly drawn) [Compound C, 5-(4-((R)-2-fluoro-2-(3-methoxyphenyl)ethoxy)benzyl)thiazolidine-2,4-dione]
amount of UCP1 (Western blot) ([3]; 0.1 to 3 μM): dose-dependent increase

COc1cccc(C(=O)COc2ccc(CC3SC(=O)NC3=O)cc2)c1 (centres unmarked) [Compound G, 5-{4-[2-(3-methoxyphenyl)-2-oxoethoxy]benzyl}-1,3-thiazolidine-2,4-dione]
PGC-1α message (mRNA) (PGC-1α): an increase in PGC-1α message was observed

CCc1ccc(C(=O)COc2ccc(CC3SC(=O)NC3=O)cc2)nc1 (centres unmarked) [Compound A, 5-{4-[2-(5-ethylpyridin-2-yl)-2-oxoethoxy]benzyl}-1,3-thiazolidine-2,4-dione]
amount of UCP1 (Western blot) ([3]; 0.1 to 10 μM): dose-dependent increase | PGC-1α message (mRNA) (PGC-1α): an increase in PGC-1α message was observed

CCc1ccc([C@@H](F)COc2ccc(CC3SC(=O)NC3=O)cc2)nc1 (stereo partly drawn) [Compound E, 5-(4-((R)-2-(5-ethylpyridin-2-yl)-2-fluoroethoxy)benzyl)thiazolidine-2,4-dione]
amount of UCP1 (Western blot) ([3]; 3 to 10 μM): dose-dependent increase

COc1cccc([C@H](F)COc2ccc(CC3SC(=O)NC3=O)cc2)c1 (stereo partly drawn) [Compound B, 5-(4-((S)-2-fluoro-2-(3-methoxyphenyl)ethoxy)benzyl)thiazolidine-2,4-dione]
amount of UCP1 (Western blot) ([3]; 0.1 to 3 μM): dose-dependent increase

CCc1ccc([C@H](F)COc2ccc(CC3SC(=O)NC3=O)cc2)nc1 (stereo partly drawn) [Compound D, 5-(4-((S)-2-(5-ethylpyridin-2-yl)-2-fluoroethoxy)benzyl)thiazolidine-2,4-dione]
amount of UCP1 (Western blot) ([3]; 3 to 10 μM): dose-dependent increase

COc1cccc(C(=O)COc2ccc(CC3SC(=O)[N-]C3=O)cc2)c1.[K+] (centres unmarked) [potassium salt of Compound G, Potassium 5-{4-[2-(3-methoxyphenyl)-2-oxoethoxy]benzyl}-2,4-dioxo-1,3-thiazolidin-3-ide]
bioavailability (AUC of compound related materials) versus free acid counterparts [2]: significantly higher bioavailability
